Legend:
[1] = Permeability of the compound at pH 5.5 by PAMPA assay; format: ADME; conditions: read-out: permeability
Prothrombin = Prothrombin (Homo sapiens, UniProt P00734); test: Inhibition of thrombin (unknown origin) at 25 degC by chromogenic substrate assay
[2] = Clearance in iv dosed dog; format: ADME, organism-based, Canis lupus familiaris; conditions: in vivo
[3] = Inhibition of trypsin (unknown origin) at 25 degC by chromogenic substrate assay; parameters: species or system Homo sapiens
[4] = target: T1, Coagulation factor VII/tissue factor (Homo sapiens, UniProt P08709); test: Inhibition of recombinant human TF-factor 7a using factor 10 as substrate at 37 degC; format: protein-complex assay
[5] = target: Vitamin K-dependent protein C (Homo sapiens, UniProt P04070); test: Inhibition of activated protein C (unknown origin) at 37 degC by chromogenic substrate assay
Coagulation factor X = Coagulation factor X (Homo sapiens, UniProt P00742); test: Inhibition of factor 10a (unknown origin) at 25 degC by chromogenic substrate assay
[6] = Fraction unbound in human plasma; format: ADME, cell-free
Kallikrein-1 = Kallikrein-1 (Homo sapiens, UniProt P06870); test: Inhibition of human kallikrein1 at 37 degC by chromogenic substrate assay
[7] = Half-life in human liver microsomes; format: ADME
[8] = Anticlotting activity in human factor 7 immunodepleted plasma mixed with normal pooled plasma from different species assessed compound causing 2 times increase in prothrombin time after 3 mins relative to baseline control; format: functional
[9] = Permeability of the compound at pH 7.4 by PAMPA assay; format: ADME; conditions: read-out: permeability
Homo sapiens [10] = species: Homo sapiens; test: Selectivity ratio of Ki for factor 9a (unknown origin) to Ki for human factor 7a ([…] residues)
Homo sapiens [11] = species: Homo sapiens; test: Selectivity ratio of Ki for factor 10a (unknown origin) to Ki for human factor 7a ([…] residues)
Homo sapiens [12] = species: Homo sapiens; test: Selectivity ratio of Ki for trypsin (unknown origin) to Ki for human factor 7a ([…] residues)
Homo sapiens [13] = species: Homo sapiens; test: Selectivity ratio of Ki for thrombin (unknown origin) to Ki for human factor 7a ([…] residues)
Homo sapiens [14] = species: Homo sapiens; test: Selectivity ratio of Ki for human kallikrein1 to Ki for recombinant human TF-factor 7a
[15] = Clearance in po or iv dosed Beagle dog by LC-MS/MS analysis; format: ADME, organism-based, Canis lupus familiaris; conditions: in vivo
[16] = target: T1, Coagulation factor VII/tissue factor; test: Inhibition of human TF-factor 7a ([…] residues) using factor 10 as substrate after 60 mins; format: protein-complex assay
[17] = Permeability from apical to basolateral side in human Caco2 cells; format: ADME, cell-based; conditions: Caco-2, read-out: permeability
[18] = Permeability from basolateral to apical side in human Caco2 cells; format: ADME, cell-based; conditions: Caco-2, read-out: permeability
[19] = Half life in Beagle dog liver microsomes at 3 uM by LC-MS/MS analysis; format: ADME, Canis lupus familiaris
[20] = Oral bioavailability in Beagle dog; format: ADME, organism-based, Canis lupus familiaris; conditions: in vivo
[21] = Metabolic stability in human liver microsomes assessed as compound remaining after 10 mins; format: ADME; conditions: read-out: Stability
[22] = Oral bioavailability in iv dosed dog; format: ADME, organism-based, Canis lupus familiaris; conditions: in vivo

| Papp [1] [×10⁻⁶ cm/s] | Ki (Prothrombin) [µM] | clearance [2] [mL/min/kg] | Ki [3] [µM] | Ki [4] [pM] | Ki [5] [µM] | Ki (Coagulation factor X) [µM] | fraction unbound [6] | Ki (Kallikrein-1) [µM] | half-life [7] [h] | Papp [9] [×10⁻⁶ cm/s] | Structure (SMILES) | EC [8] [µM] | other results |
| --- | --- | --- | --- | --- | --- | --- | --- | --- | --- | --- | --- | --- | --- |
| 20.9 | > 13.3 | 56 | 3.4 | 140 | 0.725 | 0.85 | 0.033 | 1.15 | > 2 | 3.4 | Cc1cc2ccc1[C@@H](C)COC(=O)Nc1ccc(C3(C(=O)O)CCC3)c(c1)CN(C)C(=O)[C@@H]2Nc1ccc2c(N)ncc(F)c2c1 | 7.9 | – |
| – | – | – | – | – | – | – | – | – | – | – | CCS(=O)(=O)c1ccc2cc1CNC(=O)[C@H](Nc1ccc3c(N)nccc3c1)c1ccc(c(C)c1)CCOC(=O)N2 | 1.2 | Ratio Ki (Homo sapiens [10]): > 500; Ratio Ki (Homo sapiens [11]): > 500; Ratio Ki (Homo sapiens [12]): > 500; Ratio Ki (Homo sapiens [13]): > 500 |
| 2.6 | > 13.3 | – | > 6.2 | 4400 | 1.6 | 1.4 | 0.058 | 5.3 | > 2 | 2.1 | Cc1cc2ccc1[C@@H](C)COC(=O)Nc1ccc(C3(C(=O)O)CCOCC3)c(c1)CN(C)C(=O)[C@@H]2Nc1ccc2c(N)ncc(F)c2c1 | 11 | – |
| – | 18 | – | > 6.2 | 18000 | 0.22 | 3 | – | 0.015 | 0.383 | – | Cc1cc2ccc1[C@@H](C)COC(=O)Nc1ccc(C3CC3)c(c1)CN(C)C(=O)[C@@H]2Nc1ccc2c(N)ncc(F)c2c1 | 32 | Ratio Ki (Homo sapiens [14]): 0.8 |
| – | – | – | – | – | – | – | – | – | – | – | Cc1cc2ccc1[C@@H](C)COC(=O)Nc1ccc(C3CC3)c(c1)CN(C)C(=O)[C@@H]2Nc1ccc2c(N)nccc2c1 | – | clearance [15]: 2.2 mL/min/kg; Ki [16]: 0.002 µM; Papp A→B [17]: < 1.5 ×10⁻⁶ cm/s; Papp B→A [18]: 9.3 ×10⁻⁶ cm/s; half-life at 3 µM [19]: 3.33 h; bioavailability [20]: 12% |
| 33.7 | > 13.3 | – | 2.75 | – | 0.07 | 6.65 | 0.044 | – | – | 11.7 | Cc1cc2ccc1[C@@H](C)COC(=O)Nc1ccc(C3(C(=O)O)CC3)c(c1)CN(C)C(=O)[C@@H]2Nc1ccc2c(N)ncc(F)c2c1 | 4.7 | remaining at 10 min [21]: 100% |
| 80.5 | > 13.3 | – | 0.505 | 60 | 0.155 | 0.9 | 0.017 | 1.2 | 1.57 | 8 | Cc1cc2ccc1[C@@H](C)COC(=O)Nc1ccc(C3(C(=O)O)CCCCC3)c(c1)CN(C)C(=O)[C@@H]2Nc1ccc2c(N)ncc(F)c2c1 | 18 | – |
| – | – | – | – | – | – | – | – | – | – | – | Cc1cc2ccc1[C@@H](C)COC(=O)Nc1ccc(S(=O)(=O)C3CC3)c(c1)CN(C)C(=O)[C@@H]2Nc1ccc2c(N)nccc2c1 | 1.1 | clearance [15]: 29 mL/min/kg; half-life at 3 µM [19]: 1.77 h; bioavailability [20]: 1% |
| 11.9 | > 13.3 | 7 | 4.9 | 720 | 0.175 | 1.05 | 0.018 | 0.96 | 1.9 | 4.8 | Cc1cc2ccc1[C@@H](C)COC(=O)Nc1ccc(C3(c4nnn[nH]4)CC3)c(c1)CN(C)C(=O)[C@@H]2Nc1ccc2c(N)ncc(F)c2c1 | 10 | bioavailability [22]: 2% |
| 21.1 | > 13.3 | 54 | 2.2 | 220 | 0.34 | 1.8 | 0.028 | 1.6 | – | 4 | Cc1cc2ccc1[C@@H](C)COC(=O)Nc1ccc(C3(C(=O)O)CCCC3)c(c1)CN(C)C(=O)[C@@H]2Nc1ccc2c(N)ncc(F)c2c1 | 6.6 | – |
